Test results taken from patent US20050069877A1, “Protein modification and maintenance molecules” (priority 2001, published 2005).

Key:
[1] = system: expression of SEQ ID NO:33 in human C3A liver cell line; assay: Microarray expression of SEQ ID NO:33 in compound-treated C3A liver cells; assay type: cell-based; conditions: human C3A liver cell line incubated for varying lengths of time with compound
Description: The array elements are hybridized with polynucleotides in a biological sample. The polynucleotides in the biological sample are conjugated to a fluorescent label or other molecular tag for ease of detection. After hybridization, nonhybridized nucleotides from the biological sample are removed, and a fluorescence scanner is used to detect hybridization at each array element. […] The degree of complementarity and the relative abundance of each polynucleotide which hybridizes to an element on the microarray may be assessed.
Total RNA is isolated from tissue samples using the guanidinium thiocyanate method and poly(A)^+ RNA is purified using the oligo-(dT) cellulose method. Each poly(A)^+ RNA sample is reverse transcribed using MMLV reverse-transcriptase, 0.05 pg/μl oligo-(dT) primer (21 mer), 1× first strand buffer, 0.03 units/μl RNase inhibitor, 500 μM dATP, 500 μM dGTP, 500 μM dTTP, 40 μM dCTP, 40 μM dCTP-Cy3 (BDS) or dCTP-Cy5 (Amersham Biosciences). The reverse transcription reaction is performed in a 25 ml volume containing 200 ng poly(A)^+ RNA with GEMBRIGHT kits (Incyte). Specific control poly(A)^+ RNAs are synthesized by in vitro transcription from non-coding yeast genomic DNA. […]

[2] = intranasal; greater than those produced by hydrocortisone; cited from earlier work
[3] = greater than progesterone; cited from earlier work
[4] = system: expression of SEQ ID NO:35 in human peripheral blood mononuclear cells (PBMCs); assay: Microarray expression of SEQ ID NO:35 in prednisone-treated PBMCs; assay type: cell-based; conditions: PBMCs pooled from 6 healthy donors, 5 and 25 μM, 24 hours, compared to untreated controls
Description: (§1) Full length cDNAs, Expressed Sequence Tags (ESTs), or fragments or oligomers thereof may comprise the elements of the microarray. Fragments or oligomers suitable for hybridization can be selected using software well known in the art such as LASERGENE software (DNASTAR). The array elements are hybridized with polynucleotides in a biological sample. The polynucleotides in the biological sample are conjugated to a fluorescent label or other molecular tag for ease of detection. After hybridization, nonhybridized nucleotides from the biological sample are removed, and a fluorescence scanner is used to detect hybridization at each array element. Alternatively, laser desorbtion and mass spectrometry may be used for detection of hybridization. The degree of complementarity and the relative abundance of each polynucleotide which hybridizes to an element on the microarray may be assessed. In one embodiment, microarray preparation and usage is described in detail below.
(§2) Total RNA is isolated from tissue samples using the guanidinium thiocyanate method and poly(A)^+ RNA is purified using the oligo-(dT) cellulose method. […]
(§3) Sequences of the present invention are used to generate array elements. […] Array elements are amplified in thirty cycles of PCR from an initial quantity of 1-2 ng to a final quantity greater than 5 μg. […]

[5] = system: expression of SEQ ID NO:44 in peripheral blood mononuclear cells; assay: Microarray expression of SEQ ID NO:44 in IL12-treated PBMCs; assay type: cell-based, human; conditions: PBMCs from a pool of healthy donors, 1 ng/ml, 24 hours
Description: as §1, §2, §3

For `C[C@H]1C[C@H]2[C@@H]3CCC4=CC(=O)C=C[C@]4(C)[C@@]3(Cl)[C@@H](O)C[C@]2(C)[C@@]1(O)C(=O)CO` [beclomethasone], the “expression of SEQ ID NO:33” value [1] is listed as “reduced by at least two fold” and the “anti-inflammatory and vasoconstrictive effects relative to hydrocortisone” value [2] is listed as 5000 times.

In the case of “6α-methyl-17-hydroxyprogesterone [medroxyprogesterone]”, the “pharmacological activity relative to progesterone” value [3] is given as “about 15 times” and the “expression of SEQ ID NO:33” value [1] is given as “reduced by at least two fold”.

For `C[C@]12C=CC(=O)C=C1CC[C@@H]1[C@@H]2C(=O)C[C@@]2(C)[C@H]1CC[C@]2(O)C(=O)CO` [prednisone], the “expression of SEQ ID NO:35” value [4] was “decreased by at least two-fold”.

B1: IL12: pleiotropic cytokine produced by macrophages and B lymphocytes (protein, UniProt P29459 23-219; P29460 23-328, looked up)
Interleukin-12 subunit alpha: RNLPVATPDPGMFPCLHHSQNLLRAVSNMLQKARQTLEFYPCTSEEIDHEDITKDKTSTVEACLPLELTKNESCLNSRETSFITNGSCLASRKTSFMMALCLSSIYEDLKMYQVEFKTMNAKLLMDPKRQIFLDQNMLAVIDELMQALNFNSETVPQKSSLEEPDFYKTKIKLCILLHAFRIRAVTIDRVMSYLNAS
Interleukin-12 subunit beta: IWELKKDVYVVELDWYPDAPGEMVVLTCDTPEEDGITWTLDQSSEVLGSGKTLTIQVKEFGDAGQYTCHKGGEVLSHSLLLLHKKEDGIWSTDILKDQKEPKNKTFLRCEAKNYSGRFTCWWLTTISTDLTFSVKSSRGSSDPQGVTCGAATLSAERVRGDNKEYEYSVECQEDSACPAAEESLPIEVMVDAVHKLKYENYTSSFFIRDIIKPDPPKNLQLKPLKNSRQVEVSWEYPDTWSTPHSYFSLTFCVQVQGKSKREKKDRVFTDKTSATVICRKNASISVRAQDRYYSSSWSEWASVPCS
In the case of B1, the “expression of SEQ ID NO:44” value [5] is reported as “decreased by at least two-fold”.
